Source: US9156796B2, “Benzoimidazole-carboxylic acid amide derivatives as APJ receptor modulators” (SANOFI, priority 2013, dated 2015)

Target: T1, human apelin receptor (Homo sapiens, UniProt P35414)
T1 construct: expressed in transfected cells
T1 sequence (P35414 1-380): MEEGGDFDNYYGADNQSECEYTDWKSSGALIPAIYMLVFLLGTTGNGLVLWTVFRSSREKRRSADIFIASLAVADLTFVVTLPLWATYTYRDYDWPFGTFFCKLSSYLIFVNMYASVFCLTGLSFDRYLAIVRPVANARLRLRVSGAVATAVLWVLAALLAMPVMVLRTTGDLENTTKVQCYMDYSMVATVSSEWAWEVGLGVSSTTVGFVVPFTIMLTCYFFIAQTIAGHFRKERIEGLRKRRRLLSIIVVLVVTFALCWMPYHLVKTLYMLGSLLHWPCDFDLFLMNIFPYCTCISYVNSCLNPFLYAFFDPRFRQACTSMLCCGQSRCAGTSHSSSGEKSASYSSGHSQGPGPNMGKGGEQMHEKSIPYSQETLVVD
Assay: Determination of agonism on the human apelin receptor by a calcium fluorescence assay (FLIPR)
Assay type: cell-based
Details: HEK293 cells stably transfected with human apelin receptor and Giaq protein, Fluo-4 calcium fluorescence, read-out: EC50 (APJ agonism)
Outline: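 HEK293 cells stably co-expressing human apelin receptor and promiscuous Giaq, loaded 1 h at 37 °C with Fluo-4 (4 μM) in probenecid-containing Hepes buffer, pH 7.4. Compounds, at least 7 concentrations in triplicate, added in FLIPR Tetra; peak calcium fluorescence normalized to 1 μM apelin-13 as 100% to derive EC50.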

EC50 [nM] | SMILES
1670 | CCC(CC)n1c(CC2CCCO2)nc2cc(C(=O)N[C@@H](CC(C)C)C(=O)O)ccc21 (stereo partly drawn) [Example 80, (S)-2-{[1-(1-Ethyl-propyl)-2-(tetrahydro-furan-2-ylmethyl)-1H-benzoimidazole-5-carbonyl]-amino}-4-methyl-pentanoic acid]
< 41 | CCC(CC)n1c(Cc2ccco2)nc2cc(C(=O)N[C@@H](CC(C)C)C(=O)O)ccc21 [Example 81, (S)-2-{[1-(1-Ethyl-propyl)-2-furan-2-ylmethyl-1H-benzoimidazole-5-carbonyl]-amino}-4-methyl-pentanoic acid]
23300 | CCC(CC)n1c(Cc2ccc(Cl)s2)nc2cc(C(=O)N[C@@H](CC(C)C)C(=O)O)ccc21 [Example 82, (S)-2-{[2-(5-Chloro-thiophen-2-ylmethyl)-1-(1-ethyl-propyl)-1H-benzoimidazole-5-carbonyl]-amino}-4-methyl-pentanoic acid]
18200 | CC(C)C[C@H](NC(=O)c1ccc2c(c1)nc(Cc1cccs1)n2CC1CCCCC1)C(=O)O [Example 83, (S)-2-[(1-Cyclohexylmethyl-2-thiophen-2-ylmethyl-1H-benzoimidazole-5-carbonyl)-amino]-4-methyl-pentanoic acid]
2950 | CCC(CC)n1c(Cc2cscn2)nc2cc(C(=O)N[C@@H](CC(C)C)C(=O)O)ccc21 [Example 84, (S)-2-{[1-(1-Ethyl-propyl)-2-thiazol-4-ylmethyl-1H-benzoimidazole-5-carbonyl]-amino}-4-methyl-pentanoic acid]
7800 | CCC(CC)n1c(Cc2cscn2)nc2cc(C(=O)N[C@H](C(=O)O)[C@@H](C)CC)ccc21 [Example 85, (2S,3S)-2-{[1-(1-Ethyl-propyl)-2-thiazol-4-ylmethyl-1H-benzoimidazole-5-carbonyl]-amino}-3-methyl-pentanoic acid]
88 | CC(C)C[C@H](NC(=O)c1ccc2c(c1)nc(Cc1ccco1)n2C1CCCCC1C)C(=O)O (stereo partly drawn) [Example 86, (S)-2-{[2-Furan-2-ylmethyl-1-(2-methyl-cyclohexyl)-1H-benzoimidazole-5-carbonyl]-amino}-4-methyl-pentanoic acid]
882 | CC(C)C[C@H](NC(=O)c1ccc2c(c1)nc(Cc1cccs1)n2C1CCCCC1C(F)(F)F)C(=O)O (stereo partly drawn) [Example 87, (S)-4-Methyl-2-{[2-thiophen-2-ylmethyl-1-(2-trifluoromethyl-cyclohexyl)-1H-benzoimidazole-5-carbonyl]-amino}-pentanoic acid]
754 | CCC[C@H](NC(=O)c1ccc2c(c1)nc(Cc1cccs1)n2C1CCCCC1C(F)(F)F)C(=O)O (stereo partly drawn) [Example 88, (S)-2-{[2-Thiophen-2-ylmethyl-1-(2-trifluoromethyl-cyclohexyl)-1H-benzoimidazole-5-carbonyl]-amino}-pentanoic acid]
9330 | O=C(N[C@@H](Cc1ccccc1)C(=O)O)c1ccc2c(c1)nc(Cc1cccs1)n2C1CCCCC1C(F)(F)F (stereo partly drawn) [Example 89, (S)-3-Phenyl-2-{[2-thiophen-2-ylmethyl-1-(2-trifluoromethyl-cyclohexyl)-1H-benzoimidazole-5-carbonyl]-amino}-propionic acid]
472 | CC(C)C[C@H](NC(=O)c1ccc2c(c1)nc(Cc1cccs1)n2C1CCCC1C)C(=O)O (stereo partly drawn) [Example 90, (S)-4-Methyl-2-{[1-(2-methyl-cyclopentyl)-2-thiophen-2-ylmethyl-1H-benzoimidazole-5-carbonyl]-amino}-pentanoic acid]
137 | CCC[C@H](NC(=O)c1ccc2c(c1)nc(Cc1cccs1)n2[C@@H]1CCCC[C@H]1C)C(=O)O [Example 91, (S)-2-{[1-((1R,2R)-2-Methyl-cyclohexyl)-2-thiophen-2-ylmethyl-1H-benzoimidazole-5-carbonyl]-amino}-pentanoic acid]
< 41 | CC[C@H](C)[C@H](NC(=O)c1ccc2c(c1)nc(Cc1cccs1)n2[C@@H]1CCCC[C@H]1C)C(=O)O [Example 92, (2S,3S)-3-Methyl-2-{[1-((1R,2R)-2-methyl-cyclohexyl)-2-thiophen-2-ylmethyl-1H-benzoimidazole-5-carbonyl]-amino}-pentanoic acid]
291 | CCC1CCCCC1n1c(Cc2cccs2)nc2cc(C(=O)N[C@@H](CC(C)C)C(=O)O)ccc21 (stereo partly drawn) [Example 93, (S)-2-{[1-(2-Ethyl-cyclohexyl)-2-thiophen-2-ylmethyl-1H-benzoimidazole-5-carbonyl]-amino}-4-methyl-pentanoic acid]
781 | CCC[C@H](NC(=O)c1ccc2c(c1)nc(Cc1cccs1)n2C(CC)CC)C(=O)O [Example 94, (S)-2-{[1-(1-Ethyl-propyl)-2-thiophen-2-ylmethyl-1H-benzoimidazole-5-carbonyl]-amino}-pentanoic acid]
95 | CCC(CC)n1c(Cc2cccs2)nc2cc(C(=O)N[C@H](CC(=O)O)CC(C)C)ccc21 [Example 95, (S)-3-{[1-(1-Ethyl-propyl)-2-thiophen-2-ylmethyl-1H-benzoimidazole-5-carbonyl]-amino}-5-methyl-hexanoic acid]
< 41 | CCC(CC)n1c(Cc2ccco2)nc2cc(C(=O)N[C@H](CC(=O)O)CC(C)C)ccc21 [Example 96, (S)-3-{[1-(1-Ethyl-propyl)-2-furan-2-ylmethyl-1H-benzoimidazole-5-carbonyl]-amino}-5-methyl-hexanoic acid]
39000 | CC(C)C[C@@H](CC(=O)O)NC(=O)c1ccc2c(c1)nc(Cc1cccs1)n2CC1CCCCC1 [Example 97, (S)-3-[(1-Cyclohexylmethyl-2-thiophen-2-ylmethyl-1H-benzoimidazole-5-carbonyl)-amino]-5-methyl-hexanoic acid]
2190 | CCC(CC)n1c(Cc2cscn2)nc2cc(C(=O)N[C@H](CC(=O)O)CC(C)C)ccc21 [Example 98, (S)-3-{[1-(1-Ethyl-propyl)-2-thiazol-4-ylmethyl-1H-benzoimidazole-5-carbonyl]-amino}-5-methyl-hexanoic acid]
46 | CC(C)C[C@@H](CC(=O)O)NC(=O)c1ccc2c(c1)nc(Cc1ccco1)n2C1CCCCC1C (stereo partly drawn) [Example 99, (S)-3-{[2-Furan-2-ylmethyl-1-(2-methyl-cyclohexyl)-1H-benzoimidazole-5-carbonyl]-amino}-5-methyl-hexanoic acid]
5840 | CCC(CC)n1c(Cc2cccs2)nc2cc(C(=O)N[C@H](CC(=O)O)Cc3ccccc3)ccc21 [Example 100, (S)-3-{[1-(1-Ethyl-propyl)-2-thiophen-2-ylmethyl-1H-benzoimidazole-5-carbonyl]-amino}-4-phenyl-butyric acid]
106 | CC(C)C[C@@H](CC(=O)O)NC(=O)c1ccc2c(c1)nc(Cc1cccs1)n2C1CCCCC1C (stereo partly drawn) [Example 101, (S)-5-Methyl-3-{[1-(2-methyl-cyclohexyl)-2-thiophen-2-ylmethyl-1H-benzoimidazole-5-carbonyl]-amino}-hexanoic acid]
247 | CC(C)C[C@@H](CC(=O)O)NC(=O)c1ccc2c(c1)nc(Cc1cccs1)n2C1CCCCC1C(F)(F)F (stereo partly drawn) [Example 102, (S)-5-Methyl-3-{[2-thiophen-2-ylmethyl-1-(2-trifluoromethyl-cyclohexyl)-1H-benzoimidazole-5-carbonyl]-amino}-hexanoic acid]
11000 | O=C(O)C[C@H](Cc1ccccc1)NC(=O)c1ccc2c(c1)nc(Cc1cccs1)n2C1CCCCC1C(F)(F)F (stereo partly drawn) [Example 103, (S)-4-Phenyl-3-{[2-thiophen-2-ylmethyl-1-(2-trifluoromethyl-cyclohexyl)-1H-benzoimidazole-5-carbonyl]-amino}-butyric acid]
479 | CC(C)C[C@@H](CC(=O)O)NC(=O)c1ccc2c(c1)nc(Cc1cccs1)n2C1CCCC1C (stereo partly drawn) [Example 104, (S)-5-Methyl-3-{[1-(2-methyl-cyclopentyl)-2-thiophen-2-ylmethyl-1H-benzoimidazole-5-carbonyl]-amino}-hexanoic acid]
5470 | CCC(CC)n1c(Cc2ccno2)nc2cc(C(=O)N[C@H](CC(=O)O)CC(C)C)ccc21 [Example 105, (S)-3-{[1-(1-Ethyl-propyl)-2-isoxazol-5-ylmethyl-1H-benzoimidazole-5-carbonyl]-amino}-5-methyl-hexanoic acid]
48 | CC(C)C[C@@H](CC(=O)O)NC(=O)c1ccc2c(c1)nc(Cc1cncs1)n2[C@@H]1CCCC[C@H]1C [Example 106, (S)-5-Methyl-3-{[1-((1R,2R)-2-methyl-cyclohexyl)-2-thiazol-5-ylmethyl-1H-benzoimidazole-5-carbonyl]-amino}-hexanoic acid]
47 | CCC(CC)n1c(Cc2cccs2)nc2cc(C(=O)N[C@H](CC(=O)O)CC(C)C)ccc21 [Example 107, (S)-3-{[1-(1-Ethyl-propyl)-2-thiophen-2-ylmethyl-1H-benzoimidazole-5-carbonyl]-amino}-5-methyl-hexanoic acid]
1060 | CC(C)C[C@H](NC(=O)c1ccc2c(c1)nc(Cc1cccs1)n2C1CCCCC1)C(=O)O [Example 108, (S)-2-[(1-Cyclohexyl-2-thiophen-2-ylmethyl-1H-benzoimidazole-5-carbonyl)-amino]-4-methyl-pentanoic acid]
3860 | CCC(C)Cn1c(CC2CCCC2)nc2cc(C(=O)N[C@@H](CC(C)C)C(=O)O)ccc21 (stereo partly drawn) [Example 109, (S)-2-{[2-Cyclopentylmethyl-1-(2-methyl-butyl)-1H-benzoimidazole-5-carbonyl]-amino}-4-methyl-pentanoic acid]
